US20250282771A1, “TETRAHYDROISOQUINOLINE HETEROBIFUNCTIONAL BCL-XL DEGRADERS” (Treeline Biosciences, Inc., priority 2022, published 2025)

Target: T1, N-terminal HiBiT tagged BCL-XL (Homo sapiens, UniProt Q07817)
T1 construct: expressed in transfected cells; host or cells: HT-1080 (ATCC CCL-121) cells stably transduced with lentivirus pLV-UBC-N-HiBiT-BCL-XL-PGK-puro
Assay: HiBiT based degradation assay
Assay type: cell-based
Details: HT1080 cells expressing N-terminal HiBiT tagged BCL-XL, BCL-XL level normalized with DMSO control
Description: Human BCL-XL protein coding open reading frame fused with N-terminal HiBiT coding sequence was synthesized from Integrated DNA Technologies (IDT). Next, N-HiBiT-BCL-XL sequence was cloned into pLV-UBC-PGK-Puro, a lentivirus plasmid purchased from Vectorbuilder, to generate pLV-UBC-N-HiBiT-BCL-XL-PGK-puro. Lentiviral particles were generated from Lenti-X™ 293T cells (Clontech) by co-transfection of pLV-UBC-N-HiBiT-BCL-XL-PGK-puro plasmids and lentiviral packaging plasmid mix (Cellecta). HT-1080 [HT1080](ATCC CCL-121) cells were infected with the lentivirus, and HT1080 cells stably integrated with the lentiviral vectors were established by incubation with […] puromycin (Thermofisher).
HT1080 cells expressing N-terminal HiBiT tagged BCL-XL were dispensed into a 384-well plate pre-spotted with compounds at varying concentrations. Three thousand cells were seeded into each well in 40 μL of RPMI 1640 media. […] After incubation, luminescence was read on a PHERAstar FSX Plate Reader (BMG). BCL-XL degradation at each indicated concentration was normalized with the DMSO control. The BCL-XL degradation curves were plotted using a four-parameter logistic model. For compounds displaying hook effects, the curve fitting was performed using the bottom point of the hook curves (i.e., the point of Ymin) as the bottom plateau to calculate EC50.

T1 sequence (Q07817 whole entry): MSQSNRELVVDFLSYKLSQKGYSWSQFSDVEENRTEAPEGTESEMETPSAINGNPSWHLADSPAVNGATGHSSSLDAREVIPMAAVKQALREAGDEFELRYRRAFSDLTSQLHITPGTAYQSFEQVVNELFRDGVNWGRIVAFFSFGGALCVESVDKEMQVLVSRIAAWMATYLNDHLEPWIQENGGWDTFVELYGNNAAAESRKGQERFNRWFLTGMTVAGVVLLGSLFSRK

| SMILES | Ymin (6 h) | Ymin (24 h) |
| --- | --- | --- |
| Cc1c(O[C@@H](C)CCC2CCN(CC(=O)N3CCN(c4cc5c(cc4F)C(=O)N(C4CCC(=O)NC4=O)C5=O)CC3)CC2)cccc1-c1ccc(N2CCc3cccc(C(=O)Nc4nc5ccccc5s4)c3C2)nc1C(=O)O (stereo partly drawn) [Compound 128a, 6-(8-(benzo[d]thiazol-2-ylcarbamoyl)-3,4-dihydroisoquinolin-2(1H)-yl)-3-(3-(((2S)-4-(1-(2-(4-(2-(2,6-dioxopiperidin-3-yl)-6-fluoro-1,3-dioxoisoindolin-5-yl)piperazin-1-yl)-2-oxoethyl)piperidin-4-yl)butan-2-yl)oxy)-2-methylphenyl)picolinic acid] | C (Ymin ≥ 70%) | B (50% ≤ Ymin < 70%) |
| Cc1c(O[C@H](C)CCC2CCN(CC(=O)N3CCN(c4cc5c(cc4F)C(=O)N(C4CCC(=O)NC4=O)C5=O)CC3)CC2)cccc1-c1ccc(N2CCc3cccc(C(=O)Nc4nc5ccccc5s4)c3C2)nc1C(=O)O (stereo partly drawn) [Compound 128b, 6-[8-(1,3-benzothiazol-2-ylcarbamoyl)-3,4-dihydro-1H-isoquinolin-2-yl]-3-[3-[(1R)-3-[1-[2-[4-[2-(2,6-dioxo-3-piperidyl)-6-fluoro-1,3-dioxo-isoindolin-5-yl]piperazin-1-yl]-2-oxo-ethyl]-4-piperidyl]-1-methyl-propoxy]-2-methyl-phenyl]pyridine-2-carboxylic acid] |  | B (50% ≤ Ymin < 70%) |
| Cc1c(OCC[C@H](C)C2CCN(CC(=O)N3CCN(c4cc5c(cc4F)C(=O)N(C4CCC(=O)NC4=O)C5=O)CC3)CC2)cccc1-c1ccc(N2CCc3cccc(C(=O)Nc4nc5ccccc5s4)c3C2)nc1C(=O)O (stereo partly drawn) [Compound 130a, 6-[8-(1,3-benzothiazol-2-ylcarbamoyl)-3,4-dihydro-1H-isoquinolin-2-yl-3-[3-[(3S)-3-1-[2-[4-[2-(2,6-dioxo-3-piperidyl)-6-fluoro-1,3-dioxo-isoindolin-5-yl]piperazin-1-yl]-2-oxo-ethyl]-4-piperidyl]butoxy]-2-methyl-phenyl]pyridine-2-carboxylic acid] |  | B (50% ≤ Ymin < 70%) |
| Cc1c(OCC2CC3(CCN(CCN4CCN(c5cc6c(cc5F)C(=O)N(C5CCC(=O)NC5=O)C6=O)CC4)CC3)C2)cccc1-c1ccc(N2CCc3cccc(C(=O)Nc4nc5ccccc5s4)c3C2)nc1C(=O)O (stereo not drawn) [Compound 132, 6-(8-(benzo[d]thiazol-2-ylcarbamoyl)-3,4-dihydroisoquinolin-2(1H)-yl)-3-(3-((7-(2-(4-(2-(2,6-dioxopiperidin-3-yl)-6-fluoro-1,3-dioxoisoindolin-5-yl)piperazin-1-yl)ethyl)-7-azaspiro[3.5]nonan-2-yl)methoxy)-2-methylphenyl)picolinic acid] |  | B (50% ≤ Ymin < 70%) |
| Cc1c(OCCCC[C@@H]2CCCN(CC(=O)N3CCN(c4cc5c(cc4F)C(=O)N(C4CCC(=O)NC4=O)C5=O)CC3)C2)cccc1-c1ccc(N2CCc3cccc(C(=O)Nc4nc5ccccc5s4)c3C2)nc1C(=O)O (stereo partly drawn) [Compound 135a, 6-[8-(1,3-benzothiazol-2-ylcarbamoyl)-3,4-dihydro-1H-isoquinolin-2-yl]-3-[3-[4-[(3R)-1-[2-[4-[2-(2,6-dioxo-3-piperidyl)-6-fluoro-1,3-dioxo-isoindolin-5-yl]piperazin-1-yl]-2-oxo-ethyl]-3-piperidyl]butoxy]-2-methyl-phenyl]pyridine-2-carboxylic acid] |  | B (50% ≤ Ymin < 70%) |
| Cc1c(OCCCC[C@H]2CCCN(CC(=O)N3CCN(c4cc5c(cc4F)C(=O)N(C4CCC(=O)NC4=O)C5=O)CC3)C2)cccc1-c1ccc(N2CCc3cccc(C(=O)Nc4nc5ccccc5s4)c3C2)nc1C(=O)O (stereo partly drawn) [Compound 135b, 6-[8-(1,3-benzothiazol-2-ylcarbamoyl)-3,4-dihydro-1H-isoquinolin-2-yl]-3-[3-[4-[(3S)-1-[2-[4-[2-(2,6-dioxo-3-piperidyl)-6-fluoro-1,3-dioxo-isoindolin-5-yl]piperazin-1-yl]-2-oxo-ethyl]-3-piperidyl]butoxy]-2-methyl-phenyl]pyridine-2-carboxylic acid] |  | B (50% ≤ Ymin < 70%) |
| Cc1c(OCCCCCCCN2CCN(c3cc4c(cc3F)C(=O)N(C3CCC(=O)NC3=O)C4=O)CC2)cccc1-c1ccc(N2CCc3cccc(C(=O)Nc4nc5ccccc5s4)c3C2)nc1C(=O)NO (stereo not drawn) [Compound 137, N-(benzo[d]thiazol-2-yl)-2-(5-(3-((7-(4-(2-(2,6-dioxopiperidin-3-yl)-6-fluoro-1,3-dioxoisoindolin-5-yl)piperazin-1-yl)heptyl)oxy)-2-methylphenyl)-6-(hydroxycarbamoyl)pyridin-2-yl)-1,2,3,4-tetrahydroisoquinoline-8-carboxamide] | C (Ymin ≥ 70%) | B (50% ≤ Ymin < 70%) |
| Cc1cc(OCCCC2CCN(CC(=O)N3CCN(c4cc5c(cc4F)C(=O)N(C4CCC(=O)NC4=O)C5=O)CC3)CC2)ccc1-c1ccc(N2CCc3cccc(C(=O)Nc4nc5ccccc5s4)c3C2)nc1C(=O)O (stereo not drawn) [Compound 138] | C (Ymin ≥ 70%) | B (50% ≤ Ymin < 70%) |
| Cc1c(OCCCCC2CCN(CC(=O)N3CCN(c4cc5c(cc4F)C(=O)N(C4CCC(=O)NC4=O)C5=O)CC3)CC2)cccc1-c1ccc(N2CCc3cccc(C(=O)Nc4nc5ccccc5s4)c3C2)nc1C(=O)O (stereo not drawn) [Compound 141] | B (50% ≤ Ymin < 70%) | B (50% ≤ Ymin < 70%) |
| Cc1c(OCCCC2CCN(CC3CCN(c4cc5c(cc4F)C(=O)N(C4CCC(=O)NC4=O)C5=O)CC3)CC2)cccc1-c1ccc(N2CCc3cccc(C(=O)Nc4nc5ccccc5s4)c3C2)nc1C(=O)O (stereo not drawn) [Compound 143, 6-[8-(1,3-benzothiazol-2-ylcarbamoyl)-3,4-dihydro-1H-isoquinolin-2-yl]-3-[3-[3-[1-[[1-[2-(2,6-dioxo-3-piperidyl)-6-fluoro-1,3-dioxo-isoindolin-5-yl]-4-piperidyl]methyl]-4-piperidyl]propoxy]-2-methyl-phenyl]pyridine-2-carboxylic acid] |  | B (50% ≤ Ymin < 70%) |
| Cc1c(OCCCCC2CCN(CC3CCN(c4cc5c(cc4F)C(=O)N(C4CCC(=O)NC4=O)C5=O)CC3)CC2)cccc1-c1ccc(N2CCc3cccc(C(=O)Nc4nc5ccccc5s4)c3C2)nc1C(=O)O (stereo not drawn) [Compound 144, 6-[8-(1,3-benzothiazol-2-ylcarbamoyl)-3,4-dihydro-1H-isoquinolin-2-yl]-3-[3-[4-[1-[[1-[2-(2,6-dioxo-3-piperidyl)-6-fluoro-1,3-dioxo-isoindolin-5-yl]-4-piperidyl]methyl]-4-piperidyl]butoxy]-2-methyl-phenyl]pyridine-2-carboxylic acid] |  | A (Ymin < 50%) |
| Cc1c(OCCC2CCN(CC3CCN(c4cc5c(cc4F)C(=O)N(C4CCC(=O)NC4=O)C5=O)CC3)CC2)cccc1-c1ccc(N2CCc3cccc(C(=O)Nc4nc5ccccc5s4)c3C2)nc1C(=O)O (stereo not drawn) [Compound 145, 6-[8-(1,3-benzothiazol-2-ylcarbamoyl)-3,4-dihydro-1H-isoquinolin-2-yl]-3-[3-[2-[1-[[1-[2-(2,6-dioxo-3-piperidyl)-6-fluoro-1,3-dioxo-isoindolin-5-yl]-4-piperidyl]methyl]-4-piperidyl]ethoxy]-2-methyl-phenyl]pyridine-2-carboxylic acid] |  | A (Ymin < 50%) |

The next lines start with the values.

| Ymin (6 h) | Ymin (24 h) | SMILES |
| --- | --- | --- |
|  | B (50% ≤ Ymin < 70%) | Cc1c(O[C@H]2CC[C@H](CCCCN3CCN(c4cc5c(cc4F)C(=O)N(C4CCC(=O)NC4=O)C5=O)CC3)CC2)cccc1-c1ccc(N2CCc3cccc(C(=O)Nc4nc5ccccc5s4)c3C2)nc1C(=O)O (stereo partly drawn) [Compound 129a, 6-(8-(benzo[d]thiazol-2-ylcarbamoyl)-3,4-dihydroisoquinolin-2(1H)-yl)-3-(3-(((1s,4r)-4-(4-(4-(2-(2,6-dioxopiperidin-3-yl)-6-fluoro-1,3-dioxoisoindolin-5-yl)piperazin-1-yl)butyl)cyclohexyl)oxy)-2-methylphenyl)picolinic acid] |
|  | C (Ymin ≥ 70%) | Cc1c(OCC[C@@H](C)C2CCN(CC(=O)N3CCN(c4cc5c(cc4F)C(=O)N(C4CCC(=O)NC4=O)C5=O)CC3)CC2)cccc1-c1ccc(N2CCc3cccc(C(=O)Nc4nc5ccccc5s4)c3C2)nc1C(=O)O (stereo partly drawn) [Compound 130b] |
|  | B (50% ≤ Ymin < 70%) | Cc1c(O[C@H]2CC[C@H](CCCC(=O)N3CCN(c4cc5c(cc4F)C(=O)N(C4CCC(=O)NC4=O)C5=O)CC3)CC2)cccc1-c1ccc(N2CCc3cccc(C(=O)Nc4nc5ccccc5s4)c3C2)nc1C(=O)O (stereo partly drawn) [Compound 139a, 6-(8-(benzo[d]thiazol-2-ylcarbamoyl)-3,4-dihydroisoquinolin-2(1H)-yl)-3-(3-(((1s,4r)-4-(4-(4-(2-(2,6-dioxopiperidin-3-yl)-6-fluoro-1,3-dioxoisoindolin-5-yl)piperazin-1-yl)-4-oxobutyl)cyclohexyl)oxy)-2-methylphenyl)picolinic acid] |
| C (Ymin ≥ 70%) | A (Ymin < 50%) | Cc1c(O[C@H]2CC[C@H](CCC(=O)N3CCC(c4cc5c(cc4F)C(=O)N(C4CCC(=O)NC4=O)C5=O)CC3)CC2)cccc1-c1ccc(N2CCc3cccc(C(=O)Nc4nc5ccccc5s4)c3C2)nc1C(=O)O (stereo partly drawn) [Compound 140a, 6-(8-(benzo[d]thiazol-2-ylcarbamoyl)-3,4-dihydroisoquinolin-2(1H)-yl)-3-(3-(((1r,4r)-4-(3-(4-(2-(2,6-dioxopiperidin-3-yl)-6-fluoro-1,3-dioxoisoindolin-5-yl)piperidin-1-yl)-3-oxopropyl)cyclohexyl)oxy)-2-methylphenyl)picolinic acid] |
